Patent US20020183309A1, “Novel amines as histamine-3 receptor ligands and their therapeutic applications” (priority 2001, published 2002)
Where two headings read alike, the source gives them in different places.

Target: T1, histamine-3 receptors (H3 receptor) (Rattus norvegicus, UniProt Q9QYN8)
T1 construct: from tissue; host or cells: male Sprague-Dawley rat brain cortex membranes
Test: (3H)-N-α-methylhistamine binding to rat cortical membranes
Experimental: Briefly, male Sprague-Dawley rat brain cortices were homogenized (1 g tissue/10 mL buffer) in 50 mM Tris-HCl/5 mM EDTA containing protease inhibitor cocktail (Calbiochem) using a polytron set at 20,500 rpm. Homogenates were centrifuged for 20 minutes at 40,000×g. The supernatant was decanted, and pellets were weighed. The pellet was resuspended by polytron homogenization in 40 mL 50 mM Tris-HCl/5 mM EDTA with protease inhibitors and centrifuged for 20 minutes at 40,000×g. […] Rat cortical membranes (12 mg wet weight/tube) were incubated with (^3H)-N-α-methylhistamine (˜0.6 nM) with or without H3 receptor antagonists in a total incubation volume of 0.5 mL of 50 mM Tris-HCl/5 mM EDTA (pH 7.7). Test compounds were dissolved in DMSO to provide a 20 mM solution, serially diluted and then added to the incubation mixtures prior to initiating the incubation assay by addition of the membranes. Thioperamide (3 μM) was used to determine nonspecific binding. Binding incubations were conducted for 30 minutes at 25° C. and terminated by addition of 2 mL of ice cold 50 mM Tris-HCl (pH 7.7) and filtration through 0.3% polyethylenimine-soaked Unifilter plates (Packard). These filters were washed 4 additional times with 2 mL of ice-cold 50 mM Tris-HCl and dried for 1 hour. Radioactivity was determined using liquid scintillation counting techniques. Results were analyzed by Hill transformation and Ki values were determined using the Cheng-Prusoff equation.

[1] = male Sprague-Dawley rat brain cortical membranes, (3H)-N-α-methylhistamine ~0.6 nM, 30 minutes at 25° C., Cheng-Prusoff equation, read-out: Ki

T1 sequence (Q9QYN8 whole entry): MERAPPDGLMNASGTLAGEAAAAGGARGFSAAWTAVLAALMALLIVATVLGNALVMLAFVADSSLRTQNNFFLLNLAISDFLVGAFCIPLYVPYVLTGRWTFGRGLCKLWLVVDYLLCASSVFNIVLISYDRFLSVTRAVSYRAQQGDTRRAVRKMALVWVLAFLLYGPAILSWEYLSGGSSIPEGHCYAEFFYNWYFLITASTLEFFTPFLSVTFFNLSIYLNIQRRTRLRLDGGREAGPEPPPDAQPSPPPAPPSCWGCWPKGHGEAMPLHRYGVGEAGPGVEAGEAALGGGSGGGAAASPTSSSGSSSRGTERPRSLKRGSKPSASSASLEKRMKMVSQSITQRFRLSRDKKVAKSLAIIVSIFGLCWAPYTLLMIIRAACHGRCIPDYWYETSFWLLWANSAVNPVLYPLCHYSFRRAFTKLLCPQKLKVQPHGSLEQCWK

SMILES | Ki [1] [nM] | Ki [nM]
CC(C)N(C)CCc1cc2cc(-c3ccc(C(=O)N4CCOCC4)cn3)ccc2o1 [Example 56, N-isopropyl-N-methyl-N-(2-{5-[5-(4-morpholinylcarbonyl)-2-pyridinyl]-1-benzofuran-2-yl}ethyl)amine] | 105 | 
CCN(CCc1cc2cc(-c3ccc(C(=O)N4CCOCC4)cn3)ccc2o1)C(C)C [Example 57, N-ethyl-N-isopropyl-N-(2-{5-[5-(4-morpholinylcarbonyl)-2-pyridinyl]-1-benzofuran-2-yl}ethyl)amine] | 115 | 
CN(C)CCc1cc2cc(-c3ccc(C(=O)N4CCOCC4)cn3)ccc2o1 [Example 58, N,N-dimethyl-N-(2-{5-[5-(4-morpholinylcarbonyl)-2-pyridinyl]-1-benzofuran-2-yl}ethyl)amine] | 133 | 
CCCN(CC)CCc1cc2cc(-c3ccc(C(=O)N4CCOCC4)cn3)ccc2o1 [Example 59, N-ethyl-N-propyl-N-(2-{5-[5-(4-morpholinylcarbonyl)-2-pyridinyl]-1-benzofuran-2-yl}ethyl)amine] | 79.1 | 
O=C(c1ccc(-c2ccc3oc(CCN4CCC5(CC4)OCCO5)cc3c2)nc1)N1CCOCC1 [Example 60, 8-(2-{5-[5-(4-morpholinylcarbonyl)-2-pyridinyl]-1-benzofuran-2-yl}ethyl)-1,4-dioxa-8-azaspiro[4.5]decane] | 1000 | 
O=C(c1ccc(-c2ccc3oc(CCN4CC5CC4CO5)cc3c2)nc1)N1CCOCC1 (centres unmarked) [Example 61, 5-(2-{5-[5-(4-morpholinylcarbonyl)-2-pyridinyl]-1-benzofuran-2-yl}ethyl)-2-oxa-5-azabicyclo[2.2.1]heptane] | 143 | 
C=CCNCCc1cc2cc(-c3ccc(C(=O)N4CCOCC4)cn3)ccc2o1 [Example 63, N-allyl-N-(2-{5-[5-(4-morpholinylcarbonyl)-2-pyridinyl]-1-benzofuran-2-yl}ethyl)amine] | 1000 | 
O=C(c1ccc(-c2ccc3oc(CCNCCCO)cc3c2)nc1)N1CCOCC1 [Example 64, 3-[(2-{5-[5-(4-morpholinylcarbonyl)-2-pyridinyl]-1-benzofuran-2-yl}ethyl)amino]-1-propanol] | 1000 | 
CCCNCCc1cc2cc(-c3ccc(C(=O)N4CCOCC4)cn3)ccc2o1 [Example 65, N-(2-{5-[5-(4-morpholinylcarbonyl)-2-pyridinyl]-1-benzofuran-2-yl}ethyl)-N-propylamine] | 596 | 
CN(C)[C@@H]1CCN(CCc2cc3cc(-c4ccc(C#N)cc4)ccc3o2)C1 [Example 66, 4-(2-{2-[(3R)-3-(dimethylamino)pyrrolidinyl]ethyl}-1-benzofuran-5-yl)benzonitrile] |  | 90.4
C[C@@H]1CCCN1CCc1cc2cc(C(=O)C3CC3)ccc2o1 [Example 75, cyclopropyl(2-{2-[(2R)-2-methyl-1-pyrrolidinyl]ethyl}-1-benzofuran-5-yl)methanone] | 9.9 | 
Cc1cc(C(=O)c2ccc3oc(CCN4CCC[C@H]4C)cc3c2)ccc1Cl [Example 77, (4-chloro-3-methylphenyl)(2-{2-[(2R)-2-methyl-1-pyrrolidinyl]ethyl}-1-benzofuran-5-yl)methanone] | 6 | 
CSc1ccc(C(=O)c2ccc3oc(CCN4CCC[C@H]4C)cc3c2)cc1 [Example 78, (2-{2-[(2R)-2-methyl-1-pyrrolidinyl]ethyl}-1-benzofuran-5-yl)[4-(methylthio)phenyl]methanone] | 8.2 | 

The next lines start with results.

Ki [1] [nM] | SMILES | Ki [nM]
2 | C[C@@H]1CCCN1CCc1cc2cc(C(=O)c3cccc(Cl)c3)ccc2o1 [Example 71, (3-chlorophenyl)(2-{2-[(2R)-2-methyl-1-pyrrolidinyl]ethyl}-1-benzofuran-5-yl)methanone] | 
2.9 | COc1ccc(C(=O)c2ccc3oc(CCN4CCC[C@H]4C)cc3c2)cc1 [Example 73, (4-methoxyphenyl)(2-{2-[(2R)-2-methyl-1-pyrrolidinyl]ethyl}-1-benzofuran-5-yl)methanone] | 
4 | CCC(CC)CC(=O)c1ccc2oc(CCN3CCC[C@H]3C)cc2c1 [Example 76, 3-ethyl-1-(2-{2-[(2R)-2-methyl-1-pyrrolidinyl]ethyl}-1-benzofuran-5-yl)-1-pentanone] | 
3.8 | C[C@@H]1CCCN1CCc1cc2cc(C(=O)c3ccc(N(C)C)cc3)ccc2o1 [Example 79, [4-(dimethylamino)phenyl](2-{2-[(2R)-2-methyl-1-pyrrolidinyl]ethyl}-1-benzofuran-5-yl)methanone] | 
1.6 | COc1ccccc1C(=O)c1ccc2oc(CCN3CCC[C@H]3C)cc2c1 [Example 82, (2-methoxyphenyl)(2-{2-[(2R)-2-methyl-1-pyrrolidinyl]ethyl}-1-benzofuran-5-yl)methanone] | 
1.1 | COc1cccc(C(=O)c2ccc3oc(CCN4CCC[C@H]4C)cc3c2)c1 [Example 83, (3-methoxyphenyl)(2-{2-[(2R)-2-methyl-1-pyrrolidinyl]ethyl}-1-benzofuran-5-yl)methanone] | 
2.8 | C[C@@H]1CCCN1CCc1cc2cc(C(=O)c3ccccc3)ccc2o1 [Example 84, (2-{2-[(2R)-2-methyl-1-pyrrolidinyl]ethyl}-1-benzofuran-5-yl)(phenyl)methanone] | 
